Series [1] can be described thus: Pharmacokinetics in Wistar rats. The format is in vivo. The note with it: for Cmax: rat, plasma, oral.
In series [2] the target is T1, human EP4 receptor (Homo sapiens, UniProt P35408). Nature of the series: Determination of cAMP in CHO cells transfected with human EP4 receptor (functional test). The note with it: for Agonist effect (inactive up to): cAMP production in absence of PGE2, vs 1 μM PGE2 control; for Kb: cAMP, CHO-hEP4, 30 nM PGE2, modified Cheng Prusoff; for IC50: inhibition of cAMP response to 30 nM PGE2, read-out: Antagonist effect: IC50. Also noted: expressed in transfected cells; host or cells: CHO cells. The format is cell-based. The protocol:
Determination of cAMP in CHO Cells Transfected with Human EP4 Receptor (Functional Test)
Method: Evaluation of the agonist and antagonist activity of Compound 1 in the human EP4 receptor expressed in CHO cells transfected with the human EP4 receptor, determined by measuring its effects on cAMP production in the absence and in the presence of the endogenous agonist PGE2.
The CHO cells were suspended in HBSS buffer (Invitrogen) with the addition of HEPES 20 mM (pH 7.4) and IBMX […], then distributed in microplates at a density of 20000 cells per well and incubated for 10 minutes at room temperature in the absence (control) or in presence of the compound under examination. As a reference control of the agonist activity, 1 μM of PGE2 was added to independent dosage wells. In the case of the evaluation of the antagonistic effect, the reference agonist PGE2 was instead added to a final concentration of 30 nM. After 10 minutes of incubation at room temperature, the cells were lysed and the fluorescence acceptor (cAMP labelled D2) and the fluorescence donor (anti-cAMP antibody labelled with europium cryptate) were added. After 60 minutes at room temperature, the fluorescence transfer was measured at a wavelength of 337 nm in excitation and at 620 and 665 nm in emission using a microplate reader (Envison, Perkin Elmer). The cAMP concentration was determined by dividing the measured signal at 665 nm by that measured at 620 nm (ratio). The results were expressed, in the case of the evaluation of the agonist effect, as a percentage of the control response at 1 μM of PGE2 while, in the case of the evaluation of the antagonist effect, as a percentage of inhibition of the response of the control agonist at 30 nM PGE2. For the determination of the antagonist activity, the apparent dissociation constant (Kb) was calculated by applying the modified Cheng Prusoff equation (Kb=IC50/(1+A/EC50A)); where A=concentration of the reference agonist PGE2, and EC50A=EC50 value of the reference agonist.
A general note: Changes in cAMP serve as a functional read-out for many G protein-coupled receptors.

The target of another series is T2, EP4 receptor (Rattus norvegicus, UniProt P43114).
T2 construct: by the cells present in the whole blood of the rat and expressing the EP4 receptor; from tissue; host or cells: whole blood of male Wistar rats dosed orally, ex vivo
The experiment in a line: Ex-vivo functional test: reversion of PGE2 effect on LPS-induced TNF alpha release in rat whole blood (EP4 receptor occupation). The conditions noted are these: 30 mg/kg oral; for Effect per se on the release of TNF alpha (in absence of PGE2): LPS only; for Reversion of the effect of PGE2 on LPS-induced TNF alpha release: blood sampled 1 hour after treatment, **p<0.01 vs vehicle. Here is the method: Ex-Vivo Functional Test: Evaluation in the Rat of EP4 Receptor Occupation by Compound 1 (30 mg/kg) Compared to CR6086 (30 mg/kg)
Method: The release of the cytokine TNF alpha induced by the endotoxin Lipopolysaccharide (from E. coli) and modulated by increasing concentrations of PGE2 was evaluated, by the cells present in the whole blood of the rat and expressing the EP4 receptor. As it is known from the literature, PGE2 modulates this release by inhibiting it, and the compounds tested, selective for the EP4 receptor, if present in the blood following their uptake, will be bound to the receptor, preventing PGE2 from inhibiting cytokine release. This reversal effect of the modulation of TNF alpha release can be considered a biomarker of the antagonism towards the EP4 receptor.
Male Wistar rats (Charles River, Italy) weighing 250-275 g were used, orally treated with a vehicle or Compound 1 (30 mg/kg) or CR6086 (30 mg/kg). Each treatment group consisted of 6 animals.
Measurement of the Ex-Vivo Effects in Whole Blood of the Rat:
The effects of the receptor occupancy by the compounds under examination was evaluated one hour after their administration, and compared to those measured in the presence of the vehicle alone. After gaseous anaesthesia with isofluorane, blood was taken from the abdominal aorta and transferred to tubes containing heparin (0.1-0.2 U/ml). Then 0.4 ml blood aliquots were taken and dispensed into a series of test tubes which were pre-heated at 37° C. for 10 minutes. LPS (0.1 μg/ml final concentration) were added to the samples, which represented the test control, or an LPS mix (0.1 μg/ml final concentration)+PGE2 at various concentrations. In the samples representing the basal release of cytokine, LPS was replaced by sterile phosphate buffer (PBS). The samples were incubated for 4 hours at 37° C., then 40 μl of 10 mM EDTA were added and the samples were transferred into ice. The samples were then centrifuged at 1500×g for 10 minutes at 4° C. and the plasma thus obtained was removed and stored at −80° C. until the time of the dosing. The content of TNF alpha in the plasma was measured by means of a specific commercial kit.
The final concentrations of TNF alpha were calculated for each animal treated and for each experimental condition, from which the percentage of inhibition due to increasing concentrations of PGE2 were obtained, compared to the sample containing only LPS. The cytokine release baseline values resulted to be below the ELISA assay sensitivity limit, indicated by the manufacturer. Therefore, the IC50 value was calculated from this inhibition curve. […] The mean TNF alpha values of the samples in presence of only LPS, in the different treatment groups were analysed to verify the possible intrinsic effect of the compound under examination. […]

The test system of series [3] is collagen-induced arthritis in mice. The experiment in a line: Collagen arthritis in the mouse (CIA). The format is in vivo.
The target of series [4] is T1, human EP4 receptor. Nature of the series: [3H]-PGE2 binding to recombinant human EP4 receptor (HEK293 membranes). Also noted: expressed in transfected cells. The conditions noted are these: for IC50: recombinant human EP4 receptor, HEK293 membranes, radioligand 1 nM, 90 min 25° C., read-out: [3H]-PGE2 binding IC50 (nM ± SD). The protocol: Studies of Binding Towards the Human EP4 Receptor.
The experiments were performed in accordance with the procedure described by Abramovitz et al (Biochemica and Biophysica Acta; 1483, 285-293, 2000).
The cell membranes bearing the human EP4 receptor, stably expressed by HEK293 cells (Human Embryonic Kidney 293) were prepared as described below. After eliminating the culture medium (DMEM, supplemented with Glutamax I and containing 10% of foetal bovine serum and blasticidin 10 μg/ml) a wash of the cell monolayer was performed with 10 ml of hypotonic lysis buffer (TRIS-CI 5 mM+EDTA 5 mM-pH 7.4). The cells, which grew in adherence in the above mentioned medium at 37° C. with 5% CO2, were then detached from the growth container (150 cm^2 flask) and lysed by mechanical action, adding 20 ml of fresh lysis buffer. The lysates were stirred for 30 seconds and centrifuged at 40000×g for 22 minutes at 4° C. The final pellet was stored at −80° C. until use. At the time of the binding experiment, the membranes were thawed and re-suspended in analysis buffer (10 mM MES-KOH pH6, containing 10 mM MgCl2 and 1 mM CaCl2)) to obtain a concentration of 1 mg of proteins/ml. The protein content of the membrane suspension was determined using bovine serum albumin as a standard.
In the experiments, 10 μl aliquots of membranes were incubated with the radioligand [^3H]-Prostaglandin E2 (PGE2) at the concentration of 1 nM, in absence or in presence of various concentrations of the compounds to be tested. The non-specific binding was determined in the presence of PGE2 1 μM. The incubation, in a final volume of 0.1 ml, performed in 96 deepwell microplates, proceeded for 90 minutes at 25° C. The separation of the free radioligand from that bound to the receptor occurred by rapid filtration under vacuum, using Unifilter GFB glass fibre filtering microplates, pre-wetted with 0.3% of polyethylene-imine dissolved in the analysis buffer, followed by 3 washes with cold buffer (50 mM HEPES, NaCl 500 mM, BSA 0.1%, pH 7.4). The filtration discs were then dried at 30° C., to which 0.05 ml of Microscint-20 scintillation liquid (Perkin Elmer) was added to each and at the end the radioactivity present was measured after at least one hour of stabilization. The compound/radioligand competition curves were analysed using the “Non linear curve fitting” program (Graph Pad, version 7 for Windows), which allowed calculating the IC50 value (concentration capable of inhibiting the 50% of the radioligand binding to the receptor under examination) for each compound evaluated.

Where [5] appears, read: read-out: Antagonist effect: Kb.
Where [6] appears, read: read-out: Kb (apparent dissociation constant), antagonist.

Each structure is given as a SMILES string. Counter-ions that a name gives are not always drawn. Like-named read-outs stand apart in the source and are kept apart here. Some results are limits rather than exact numbers.

T1 sequence (P35408 whole entry): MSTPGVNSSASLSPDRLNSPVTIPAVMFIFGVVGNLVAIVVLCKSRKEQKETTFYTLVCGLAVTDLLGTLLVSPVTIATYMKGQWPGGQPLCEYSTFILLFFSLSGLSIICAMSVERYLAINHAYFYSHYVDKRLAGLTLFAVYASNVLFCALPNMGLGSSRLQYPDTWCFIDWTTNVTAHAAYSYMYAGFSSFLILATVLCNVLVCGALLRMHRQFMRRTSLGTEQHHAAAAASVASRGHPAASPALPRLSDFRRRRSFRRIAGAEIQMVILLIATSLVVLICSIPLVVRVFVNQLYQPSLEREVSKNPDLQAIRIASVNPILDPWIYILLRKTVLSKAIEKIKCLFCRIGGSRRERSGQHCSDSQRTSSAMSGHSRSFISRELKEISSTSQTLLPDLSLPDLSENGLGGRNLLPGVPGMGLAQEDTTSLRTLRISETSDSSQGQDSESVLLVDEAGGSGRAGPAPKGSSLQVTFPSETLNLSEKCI
T2 sequence (P43114 whole entry): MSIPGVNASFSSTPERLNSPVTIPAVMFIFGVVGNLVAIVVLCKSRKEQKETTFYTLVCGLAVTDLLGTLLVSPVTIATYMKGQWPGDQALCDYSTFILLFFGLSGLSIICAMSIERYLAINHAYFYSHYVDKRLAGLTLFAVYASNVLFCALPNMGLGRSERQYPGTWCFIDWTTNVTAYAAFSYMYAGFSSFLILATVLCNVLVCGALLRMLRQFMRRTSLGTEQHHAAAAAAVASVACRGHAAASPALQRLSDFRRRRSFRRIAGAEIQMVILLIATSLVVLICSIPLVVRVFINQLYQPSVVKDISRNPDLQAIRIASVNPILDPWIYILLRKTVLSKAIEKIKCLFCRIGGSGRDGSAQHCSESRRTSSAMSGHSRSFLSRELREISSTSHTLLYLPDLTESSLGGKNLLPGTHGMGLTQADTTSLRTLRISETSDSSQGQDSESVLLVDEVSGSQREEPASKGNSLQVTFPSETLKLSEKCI

With `O=C(O)c1ccc(C2(NC(=O)[C@H]3CCCN3Cc3ccc(C(F)(F)F)cc3)CC2)cc1` [Compound 1], the Oral bioavailability result in series [1] was “excellent oral bioavailability”. For the same molecule, in series [1] (5 mg/kg), the “AUC (0-24 h)” value came out at 5460 ngxh/ml. For the same molecule, the Cmax in series [1] (5 mg/kg, converted from 4270 ng/ml, read-out: CMAX as plasma concentration) is around 9 µM; in series [1] (5 mg/kg, read-out: CMAX) it was 4270 ng/mL. Further, at human EP4 receptor [2], the “Agonist effect (inactive up to)” value is > 10^−6 M. In addition, the Kb at human EP4 receptor [2] (setting [5]) and at human EP4 receptor [2] (setting [6]) was 0.015 µM throughout. In addition, the IC50 – broadly, the concentration needed to halve the response being measured – at human EP4 receptor [2] amounted to 0.16 µM; at human EP4 receptor [4], 45 ± 0.4 nM. In addition, the “Effect per se on the release of TNF alpha (in absence of PGE2)” value on EP4 receptor is “no significant effects per se”. Besides, the “Reversion of the effect of PGE2 on LPS-induced TNF alpha release” value on EP4 receptor was “statistically significant reversion of the effect of PGE2”. For the same molecule, the “Progression of collagen-induced arthritis (oedema, clinical and histopathological score)” value in series [3] (45 and 90 mg/kg oral, 16 days, DBA/1 mice) is “significantly and in a dose-dependent manner reduced the evolution of the pathology”. For the same molecule, the “Reversion of clinical symptoms (swelling of paws) compared with CR6086 30 mg/kg” value in series [3] (compound 1 at 45 mg/kg vs CR6086 30 mg/kg in a similar study) is “greater effect on the reversion of clinical symptoms”.
Consider `O=C(O)c1ccc(C2(NC(=O)[C@H]3CC4(CCN3Cc3ccc(C(F)(F)F)cc3)CC4)CC2)cc1` [CR6086, 4-(1-(6-(4-(trifluoromethyl)benzyl)-6-azaspiro [2.5]octan-5-carboxamide)cyclopropyl) benzoic acid, reference compound], for which, on human EP4 receptor [2], the “Agonist effect (inactive up to)” value is > 10^−6 M and the IC50 was found to be 0.082 µM. For the same molecule, the Kb (as a rule, the equilibrium dissociation constant of an antagonist, usually derived from a functional assay) at human EP4 receptor [2] (setting [5]) was determined as 0.0078 µM. The Kb on human EP4 receptor [2] (setting [6]) worked out at 0.0078 µM. Besides, at EP4 receptor, the “Effect per se on the release of TNF alpha (in absence of PGE2)” value was “no significant effects per se” and the “Reversion of the effect of PGE2 on LPS-induced TNF alpha release” value is listed as “statistically significant reversion of the effect of PGE2”. For the same molecule, the IC50 at human EP4 receptor [4] turned out to be 48 ± 3 nM.
Consider `O=C(O)c1ccc(C2(NC(=O)[C@@H]3CCCN3Cc3ccc(C(F)(F)F)cc3)CC2)cc1` [Compound 2, sodium salt of (S)-4-(1-(1-(4-(trifluoromethyl)benzyl)pyrrolidin-2-carboxamide)cyclopropyl) benzoic acid], for which, on human EP4 receptor [4], the half-inhibitory concentration (IC50) came out at 2210 ± 940 nM. The “times less active than Compound 1 in inhibiting the binding of the PGE2 ligand to the human EP4 receptor” value on human EP4 receptor [4] (relative to Compound 1) is given as “about 50 times”.
